Data published in patent publication US12129276B2, “Oxysterols and methods of use thereof” (SAGE THERAPEUTICS, INC., priority 2014, dated 2024).

The compounds below were run against T1, NMDA receptor (GRIN1/GRIN2A subunits) expressed in HEK cells (Homo sapiens, UniProt Q05586+Q12879) (assay: Whole-cell patch clamp of mammalian cells, NMDA potentiation). Settings: 1 μM test article, 30 μM NMDA and 5.0 μM glycine, holding potential −80 mV.
T1 construct: expressed in transfected cells
T1 sequence (Q12879 23-1464, other chains not shown): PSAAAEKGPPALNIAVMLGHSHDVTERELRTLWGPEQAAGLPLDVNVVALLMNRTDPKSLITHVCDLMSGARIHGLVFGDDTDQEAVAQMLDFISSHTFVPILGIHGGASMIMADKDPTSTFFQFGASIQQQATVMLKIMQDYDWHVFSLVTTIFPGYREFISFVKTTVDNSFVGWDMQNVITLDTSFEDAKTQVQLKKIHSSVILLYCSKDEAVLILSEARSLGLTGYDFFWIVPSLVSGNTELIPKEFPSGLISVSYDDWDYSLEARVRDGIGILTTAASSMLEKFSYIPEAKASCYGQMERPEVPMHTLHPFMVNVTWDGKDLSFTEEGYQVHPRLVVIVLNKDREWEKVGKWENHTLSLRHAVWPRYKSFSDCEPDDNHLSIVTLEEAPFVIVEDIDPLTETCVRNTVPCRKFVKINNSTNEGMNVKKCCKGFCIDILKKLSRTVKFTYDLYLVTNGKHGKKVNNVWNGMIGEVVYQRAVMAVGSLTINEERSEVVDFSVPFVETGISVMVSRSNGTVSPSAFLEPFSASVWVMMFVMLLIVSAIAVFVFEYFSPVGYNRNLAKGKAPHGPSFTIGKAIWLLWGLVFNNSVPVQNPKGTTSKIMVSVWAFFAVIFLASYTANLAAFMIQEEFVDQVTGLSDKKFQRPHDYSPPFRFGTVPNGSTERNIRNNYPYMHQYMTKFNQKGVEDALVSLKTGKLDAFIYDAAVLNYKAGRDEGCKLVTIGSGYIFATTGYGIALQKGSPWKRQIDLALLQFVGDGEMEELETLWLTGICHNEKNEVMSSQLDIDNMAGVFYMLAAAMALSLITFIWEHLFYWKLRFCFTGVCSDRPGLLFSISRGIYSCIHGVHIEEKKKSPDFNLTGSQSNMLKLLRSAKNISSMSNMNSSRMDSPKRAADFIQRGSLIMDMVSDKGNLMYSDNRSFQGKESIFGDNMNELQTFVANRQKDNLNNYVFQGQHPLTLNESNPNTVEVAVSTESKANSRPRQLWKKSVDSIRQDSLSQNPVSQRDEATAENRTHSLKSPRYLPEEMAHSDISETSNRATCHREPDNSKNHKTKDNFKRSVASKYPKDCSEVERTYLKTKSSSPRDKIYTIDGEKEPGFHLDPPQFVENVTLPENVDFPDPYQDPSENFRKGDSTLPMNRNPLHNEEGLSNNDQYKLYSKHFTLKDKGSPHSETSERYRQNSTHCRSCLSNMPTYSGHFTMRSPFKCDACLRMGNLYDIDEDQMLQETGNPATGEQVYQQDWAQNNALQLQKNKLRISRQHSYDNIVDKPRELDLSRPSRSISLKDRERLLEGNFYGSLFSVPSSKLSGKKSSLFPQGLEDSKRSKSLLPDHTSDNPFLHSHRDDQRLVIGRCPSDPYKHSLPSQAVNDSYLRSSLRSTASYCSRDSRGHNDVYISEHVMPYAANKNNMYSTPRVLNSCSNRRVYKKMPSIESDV
Format: cell-based
Parameters: key: “A” indicates >5 to 50%; B: >50%; C indicates not active in the assay
Method: NMDA potentiation was assessed using either whole cell patch clamp of mammalian cells which expressed NMDA receptors, or using two-electrode voltage clamp (TEVC) of Xenopus laevis oocytes expressing NMDA receptors.
The whole-cell patch-clamp technique was used to investigate the effects of compounds on the NMDA receptor (GRIN1/GRIN2A subunits) expressed in HEK cells. NMDA/Glycine peak and steady-state currents were recorded from stably transfected cells expressing the NMDA receptor and the modulatory effects of the test items on these currents were investigated.
Cells were stably transfected with human GRIN1 (variant NR1-3). These cells were transiently transfected (Lipofectamine™) with GRIN2A cDNA and CD8 (pLeu) antigene cDNA. About 24-72 hours following transfection 1 μl Dynabeads M-45 CD8 was added to identify successfully transfected cells (Jurman et al., Biotechniques (1994) 17:876-881). Cells were passaged to a confluence of 50-80%. Cells were seeded onto Poly-L-Lysine coated cover slips covered with culture complete medium in a 35 mm culture dish. Confluent clusters of cells are electrically coupled (Pritchett et al., Science (1988), 242:1306-8). Because responses in distant cells are not adequately voltage clamped and because of uncertainties about the extent of coupling (Verdoorn et al., Neuron (1990), 4:919-28), cells were cultivated at a density that enables single cells (without visible connections to neighboring cells) to be measured. Cells were incubated at 37° C. in a humidified atmosphere with 5% CO2 (rel. humidity about 95%). The cells were continuously maintained in and passaged in sterile culture flasks containing a 1:1 mixture of Dulbecco's modified eagle medium and nutrient mixture F-12 (D-MEM/F-12 1×, liquid, with L-Glutamine) supplemented with 9% fetal bovine serum and 0.9% Penicillin/Streptomycin solution. The complete medium was supplemented with 3.0 μg/ml Puromycin.
Whole cell currents were measured with HEKA EPC-10 amplifiers using PatchMaster software. Cell culture dishes for recordings were placed on the dish holder of the microscope and continuously perfused (1 ml/min) with “bath solution” (NaCl 137 mM, KCl 4 mM, CaCl2) 1.8 mM, MgCl2 1 mM, HEPES 10 mM, D-Glucose 10 mM, pH (NaOH) 7.4). All solutions applied to cells including the pipette solution were maintained at room temperature (19° C.-30° C.). After formation of a Gigaohm seal between the patch electrodes and transfected individual HEK 293 cells (pipette resistance range: 2.5 MΩ-6.0 MΩ; seal resistance range: >1 GQ) the cell membrane across the pipette tip was ruptured to assure electrical access to the cell interior (whole-cell patch-configuration). At this point the bath solution is switched to “NMDA bath solution” (NaCl 137 mM, KCl 4 mM, CaCl2) 2.8 mM, HEPES 10 mM, D-Glucose 10 mM, Cremophore 0.02%, pH (NaOH) 7.4). NMDA inward currents were measured upon application of 30 μM NMDA (and 5.0 μM Glycine) to patch-clamped cells (2 applications) for 5 s. The cells were voltage clamped at a holding potential of −80 mV. For the analysis of test articles, NMDA receptors were stimulated by 30 μM NMDA and 5.0 μM Glycine after sequential pre-incubation of increasing concentrations of the test article. Pre-incubation duration was 30 s. Stimulation duration was 5 s Test articles were dissolved in DMSO to form stock solutions of 0.1 mM and 1 mM. Test articles were diluted to 0.1 μM and 1 μM in “NMDA bath solution”. Both concentrations of test articles were tested on each cell. […]
In the case of `C[C@H](CCC(C)(C)O)[C@H]1CC[C@H]2[C@@H]3CC=C4C[C@@H](O)CC[C@]4(CO)[C@H]3CC[C@]12C`, the “NMDA 1a2A (%) Potentiation 1 μM” value is reported as “A (“A” indicates >5 to 50%)”.
With `COC[C@]12CC[C@](C)(O)CC1=CC[C@@H]1[C@@H]2CC[C@]2(C)[C@@H]([C@H](C)CCCO)CC[C@@H]12` the “NMDA 1a2A (%) Potentiation 1 μM” value was “A (“A” indicates >5 to 50%)”.
In the case of `COC[C@]12CC[C@](C)(O)C[C@@H]1CC[C@H]1[C@@H]3CC[C@H]([C@H](C)CCCO)[C@@]3(C)CC[C@@H]12`, the “NMDA 1a2A (%) Potentiation 1 μM” value is reported as “C”.
In the case of `COC[C@]12CC[C@](C)(O)CC1=CC[C@@H]1[C@@H]2CC[C@]2(C)[C@@H]([C@H](C)CCC(C)(C)O)CC[C@@H]12` [drawing 25], the “NMDA 1a2A (%) Potentiation 1 μM” value is reported as “A (“A” indicates >5 to 50%)”.
`COC[C@]12CC[C@](C)(O)C[C@@H]1CC[C@H]1[C@@H]3CC[C@H]([C@H](C)CCC(C)(C)O)[C@@]3(C)CC[C@@H]12` [drawing 26] was tested, and the “NMDA 1a2A (%) Potentiation 1 μM” value was “B (B: >50%)”.

Each compound was assayed against T2, NR1/NR2A glutamate receptors expressed in mammalian cells (Homo sapiens, UniProt Q05586+Q12879) (assay: Whole-cell patch clamp of mammalian cells (IWB, Ion Works Barracuda)). Settings: 3 μM test article, co-application with EC20 L-glutamate and 30 μM glycine.
T2 construct: expressed in transfected cells
T2 sequence (Q12879 23-1464, other chains not shown): as above
Format: cell-based
Method: The whole-cell patch-clamp technique was used to investigate the effects of compounds on NR1/NR2A glutamate receptors expressed in mammalian cells.
Test article effects were evaluated in 8-point concentration-response format (4 replicate wells/concentration). All test and control solutions contained 0.3% DMSO and 0.01% Kolliphor® EL (C5135, Sigma). The test article formulations were loaded in a 384-well compound plate using an automated liquid handling system (SciClone ALH3000, Caliper LifeScienses). The measurements were performed using Ion Works Barracuda platform following this procedure: Electrophysiological Procedures: • a) Intracellular solution (mM): 50 mM CsCl, 90 mM CsF, 2 mM MgCl2, 5 mM EGTA, 10 mM HEPES. Adjust to pH 7.2 with CsOH. • b) Extracellular solution, HB-PS (composition in mM): NaCl, 137; KCl, 1.0; CaCl2, 5; HEPES, 10; Glucose, 10; pH adjusted to 7.4 with NaOH (refrigerated until use). • c) Holding potential: −70 mV, potential during agonist/PAM application: −40 mV. Recording Procedure: • a) Extracellular buffer will be loaded into the PPC plate wells (11 μL per well). Cell suspension will be pipetted into the wells (9 μL per well) of the PPC planar electrode. • b) Whole-cell recording configuration will be established via patch perforation with membrane currents recorded by on-board patch clamp amplifiers. • c) Two recordings (scans) will be performed. First, during pre-application of PAM alone (duration of pre-application—5 min) and second, during test articles and agonist (EC20 L-glutamate and 30 μM glycine) co-application to detect positive modulatory effects of the test article.
Test Article Administration: The first pre-application will consist of the addition of 20 μL of 2× concentrated test article solution and, second, of 20 μL of 1× concentrated test article and agonist at 10 μL/s (2 second total application time).
With `COC[C@]12CC[C@](C)(O)C[C@@H]1CC[C@H]1[C@@H]3CC[C@H]([C@H](C)CCC(O)C(F)(F)F)[C@@]3(C)CC[C@@H]12` (stereo partly shown) the “GluN2A PCA IWB Ephys % potentiation at 3 μM” value was “B (“B” indicates potentiation of >150%)”.
In the case of `COC[C@]12CC[C@](C)(O)CC1=CC[C@@H]1[C@@H]2CC[C@]2(C)[C@@H]([C@H](C)CCC(O)C(F)(F)F)CC[C@@H]12` (stereo partly shown), the “GluN2A PCA IWB Ephys % potentiation at 3 μM” value is reported as “A (“A” indicates 10 to 150%)”.
For `CCC(O)(CC)CC[C@@H](C)[C@H]1CC[C@H]2[C@@H]3CC=C4C[C@@](C)(O)CC[C@]4(COC)[C@H]3CC[C@]12C`, the “GluN2A PCA IWB Ephys % potentiation at 3 μM” value was “A (“A” indicates 10 to 150%)”.
`COC[C@]12CC[C@](C)(O)CC1=CC[C@@H]1[C@@H]2CC[C@]2(C)[C@@H]([C@H](C)CCC(C)(C)O)CC[C@@H]12` [drawing 28] was tested, and the “GluN2A PCA IWB Ephys % potentiation at 3 μM” value was “A (“A” indicates 10 to 150%)”.
For `COC[C@]12CC[C@](C)(O)C[C@@H]1CC[C@H]1[C@@H]3CC[C@H]([C@H](C)CCC(C)(C)O)[C@@]3(C)CC[C@@H]12` [drawing 32], the “GluN2A PCA IWB Ephys % potentiation at 3 μM” value was “A (“A” indicates 10 to 150%)”.
